{
  "source": "patent EP0775491A1",
  "about": "“IMMUNOPOTENTIATOR” (TAYCA CORPORATION, priority 1995, dated 1997)",
  "origin": "cited, not measured here",
  "settings": "oral administration to rats",
  "note": "Like-named read-outs stand apart in the source and are kept apart here.",
  "data": [
    {"smiles": "COC(COC(N)=O)C1=C(N2CC2)C(=O)C(C)=C(N2CC2)C1=O", "note": "(stereo not shown) [Carboquone]", "values": [
      {"measurement": "LD50", "result": 27.3, "unit": "mg/kg"}
    ]},
    {"smiles": "O=P1(N(CCCl)CCCl)NCCCO1", "note": "(stereo not shown) [Cyclophosphide]", "values": [
      {"measurement": "LD50", "setting": "female", "result": 118, "unit": "mg/kg"},
      {"measurement": "LD50", "setting": "male", "result": 100, "unit": "mg/kg"}
    ]},
    {"smiles": "O=c1[nH]cc(F)c(=O)[nH]1", "note": "[Fluorouracil]", "values": [
      {"measurement": "LD50", "result": 781, "unit": "mg/kg"}
    ]}
  ]
}
